# Assay results from ChEMBL document CHEMBL1201862, “PubChem BioAssay data set” (2004).
#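 Cultured in 96-well plates, cells were exposed to test compound for 48 hours across five concentrations. GI50 is the concentration that inhibits growth by half.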 Calls of active or inactive are those of the source. No stated cut-off is given here; in the data, active = GI50 up to about 1.1 µM and inactive = higher.
# Key:
# Experiment in all cases: growth of human tumour cells (NCI), 48 h
# SF-295 = test system: SF-295
# MDA-MB-231 = test system: MDA-MB-231
# LOX IMVI = test system: LOX IMVI
# A549 = test system: A549
# OVCAR-4 = test system: OVCAR-4
# OVCAR-3 = test system: OVCAR-3
# MDA-N = test system: MDA-N
# K562 = test system: K562
# HCT-116 = test system: HCT-116
# SK-OV-3 = test system: SK-OV-3
# DU-145 = test system: DU-145
# KM12 = test system: KM12
# T47D = test system: T47D
# SN12C = test system: SN12C
# SNB-75 = test system: SNB-75
# Hs-578T = test system: Hs-578T
# NCI-H522 = test system: NCI-H522
# U-251 = test system: U-251
# PC-3 = test system: PC-3
# MDA-MB-435 = test system: MDA-MB-435
# SNB-19 = test system: SNB-19
# MCF7 = test system: MCF7
# IGROV-1 = test system: IGROV-1
# RPMI-8226 = test system: RPMI-8226
# BT-549 = test system: BT-549
# NCI-H460 = test system: NCI-H460
# CAKI-1 = test system: CAKI-1
# OVCAR-5 = test system: OVCAR-5
# UO-31 = test system: UO-31
# UACC-62 = test system: UACC-62
# CCRF-CEM = test system: CCRF-CEM
# NCI/ADR-RES = test system: NCI/ADR-RES
# COLO 205 = test system: COLO 205
# UACC-257 = test system: UACC-257
# 786-0 = test system: 786-0
# Malme-3M = test system: Malme-3M
# SR = test system: SR
# NCI-H226 = test system: NCI-H226
# HCT-15 = test system: HCT-15
# HL-60 = test system: HL-60
# SK-MEL-5 = test system: SK-MEL-5
# SK-MEL-28 = test system: SK-MEL-28
# A498 = test system: A498
# SF-539 = test system: SF-539
# MOLT-4 = test system: MOLT-4
# SK-MEL-2 = test system: SK-MEL-2
# RXF 393 = test system: RXF 393
# SF-268 = test system: SF-268
# EKVX = test system: EKVX
# HOP-62 = test system: HOP-62
# TK-10 = test system: TK-10
# HT-29 = test system: HT-29
# SW-620 = test system: SW-620
# OVCAR-8 = test system: OVCAR-8
# M14 = test system: M14
# HOP-92 = test system: HOP-92
# ACHN = test system: ACHN
# NCI-H23 = test system: NCI-H23
smiles,measurement,setting,value
O=C(NNC(=O)c1ccco1)c1ccco1,GI50,SF-295,> 100 µM (inactive)
same,GI50,MDA-MB-231,> 100 µM (inactive)
same,GI50,LOX IMVI,> 100 µM (inactive)
same,GI50,A549,> 100 µM (inactive)
same,GI50,OVCAR-4,> 100 µM (inactive)
same,GI50,OVCAR-3,> 100 µM (inactive)
same,GI50,MDA-N,> 100 µM (inactive)
same,GI50,K562,> 100 µM (inactive)
same,GI50,HCT-116,> 100 µM (inactive)
same,GI50,SK-OV-3,> 100 µM (inactive)
same,GI50,DU-145,> 100 µM (inactive)
same,GI50,KM12,> 100 µM (inactive)
same,GI50,T47D,> 100 µM (inactive)
same,GI50,SN12C,> 100 µM (inactive)
same,GI50,SNB-75,55 µM (inactive)
same,GI50,Hs-578T,> 100 µM (inactive)
same,GI50,NCI-H522,15 µM (inactive)
same,GI50,U-251,> 100 µM (inactive)
same,GI50,PC-3,> 100 µM (inactive)
same,GI50,MDA-MB-435,> 100 µM (inactive)
same,GI50,SNB-19,> 100 µM (inactive)
same,GI50,MCF7,> 100 µM (inactive)
same,GI50,IGROV-1,> 100 µM (inactive)
same,GI50,RPMI-8226,> 100 µM (inactive)
same,GI50,BT-549,> 100 µM (inactive)
same,GI50,NCI-H460,> 100 µM (inactive)
same,GI50,CAKI-1,> 100 µM (inactive)
same,GI50,OVCAR-5,> 100 µM (inactive)
same,GI50,UO-31,> 100 µM (inactive)
same,GI50,UACC-62,> 100 µM (inactive)
same,GI50,CCRF-CEM,> 100 µM (inactive)
same,GI50,NCI/ADR-RES,> 100 µM (inactive)
same,GI50,COLO 205,> 100 µM (inactive)
same,GI50,UACC-257,> 100 µM (inactive)
same,GI50,786-0,> 100 µM (inactive)
same,GI50,Malme-3M,39.6 µM (inactive)
same,GI50,SR,> 100 µM (inactive)
same,GI50,NCI-H226,> 100 µM (inactive)
same,GI50,HCT-15,> 100 µM
same,GI50,HL-60,> 100 µM (inactive)
same,GI50,SK-MEL-5,> 100 µM (inactive)
same,GI50,SK-MEL-28,> 100 µM (inactive)
same,GI50,A498,> 100 µM (inactive)
same,GI50,SF-539,> 100 µM (inactive)
same,GI50,MOLT-4,> 100 µM (inactive)
same,GI50,SK-MEL-2,> 100 µM (inactive)
same,GI50,RXF 393,> 100 µM (inactive)
same,GI50,SF-268,> 100 µM (inactive)
same,GI50,EKVX,> 100 µM (inactive)
same,GI50,HOP-62,> 100 µM (inactive)
same,GI50,TK-10,> 100 µM (inactive)
same,GI50,HT-29,> 100 µM (inactive)
same,GI50,SW-620,> 100 µM (inactive)
same,GI50,OVCAR-8,> 100 µM (inactive)
same,GI50,M14,> 100 µM (inactive)
Cc1ccc2c(/C=C/c3ccc(N(C)C)cc3)ccc(C(C)C)cc1-2,GI50,SF-295,> 100 µM (inactive)
same,GI50,MDA-MB-231,> 100 µM (inactive)
same,GI50,LOX IMVI,> 100 µM (inactive)
same,GI50,A549,> 100 µM (inactive)
same,GI50,OVCAR-3,> 100 µM (inactive)
same,GI50,MDA-N,> 100 µM (inactive)
same,GI50,K562,> 100 µM (inactive)
same,GI50,HCT-116,> 100 µM (inactive)
same,GI50,SK-OV-3,> 100 µM (inactive)
same,GI50,DU-145,> 100 µM (inactive)
same,GI50,KM12,> 100 µM (inactive)
same,GI50,T47D,36.9 µM (inactive)
same,GI50,SN12C,> 100 µM (inactive)
same,GI50,SNB-75,> 100 µM (inactive)
same,GI50,Hs-578T,> 100 µM (inactive)
same,GI50,NCI-H522,99.3 µM (inactive)
same,GI50,U-251,> 100 µM (inactive)
same,GI50,PC-3,> 100 µM (inactive)
same,GI50,MDA-MB-435,> 100 µM (inactive)
same,GI50,HOP-92,76.4 µM (inactive)
same,GI50,MCF7,> 100 µM (inactive)
same,GI50,IGROV-1,> 100 µM (inactive)
same,GI50,RPMI-8226,> 100 µM (inactive)
same,GI50,BT-549,> 100 µM (inactive)
same,GI50,CAKI-1,> 100 µM (inactive)
same,GI50,OVCAR-5,> 100 µM (inactive)
same,GI50,ACHN,> 100 µM (inactive)
same,GI50,UO-31,> 100 µM (inactive)
same,GI50,UACC-62,> 100 µM (inactive)
same,GI50,CCRF-CEM,37.2 µM (inactive)
same,GI50,NCI/ADR-RES,> 100 µM (inactive)
same,GI50,COLO 205,> 100 µM (inactive)
same,GI50,UACC-257,48.9 µM (inactive)
same,GI50,786-0,> 100 µM (inactive)
same,GI50,Malme-3M,> 100 µM (inactive)
same,GI50,SR,27.9 µM (inactive)
same,GI50,NCI-H23,> 100 µM (inactive)
same,GI50,NCI-H226,> 100 µM (inactive)
same,GI50,HL-60,12.9 µM (inactive)
same,GI50,SK-MEL-5,22 µM (inactive)
same,GI50,SK-MEL-28,> 100 µM (inactive)
same,GI50,A498,83.4 µM (inactive)
same,GI50,MOLT-4,> 100 µM (inactive)
same,GI50,SK-MEL-2,> 100 µM (inactive)
same,GI50,RXF 393,> 100 µM (inactive)
same,GI50,SF-268,> 100 µM (inactive)
same,GI50,EKVX,94.2 µM (inactive)
same,GI50,HOP-62,> 100 µM (inactive)
same,GI50,TK-10,> 100 µM (inactive)
same,GI50,HT-29,49.1 µM (inactive)
same,GI50,SW-620,> 100 µM (inactive)
same,GI50,OVCAR-8,> 100 µM (inactive)
same,GI50,M14,> 100 µM (inactive)
